Test system: Energy system protein genes
Test: DNA chip mRNA expression in yeast, energy system protein genes (Table 4)
Assay type: cell-based, Saccharomyces cerevisiae S288C
Description: Yeast (Saccharomyces cerevisiae S288C (α SUC2mal mel gap2 CUP1)) were incubated at 25° C. on YPD medium (yeast extract 1%, polypepton 2%, glucose 2%). One of toxic chemical substances was added to the cells at logarithmic growth phase, and the cells were further incubated for two hours. Cells were cultured without any chemical substance in the same condition, and were used as control. Concentrations of the chemical substances were defined to inhibit the growth of the yeast but not lead to death.
After completion of the incubation, the culture was centrifuged to collect the cells. To the cells, sodium acetate buffer (50 mM sodium acetate, 10 mM EDTA, 1% SDS) was added, and the mixture was shaken at 65° C. for five minutes, followed by returning to room temperature, and obtaining the supernatant, of which the procedures were repeated two times. To the supernatant, ½ amount of a solution of phenol/chloroform was added, and the mixture was centrifuged to give a supernatant, which was added with an equal amount of chloroform, and the mixture was centrifuged to give a supernatant. To the supernatant, an equal amount of isopropanol containing 0.3 M sodium acetate was added, and the mixture was allowed to stand at room temperature for 30 minutes, after which the mixture was centrifuged to give a sediment of the whole RNAs. Seventy % ethanol was added to the sediment, and the mixture was again centrifuged to give a sediment, which was then dried and dissolved in water. mRNA was isolated from the whole RNAs as followings. In view of the fact that a poly A chain is attached to the 3′ terminus of mRNA, a polynucleotide having a poly T structure which was immobilized on the surface of latex beads was used to trap the mRNA, and then the mRNA was washed and eluted with spine column (Oligotex-dT30<Super>mRNA Purification Kit, Takara). Reverse transcription of the mRNA was conducted with a reverse transcriptase (Super Script II Reverse Transcriptase; catalogue No. 18064-014, GibcoBRL) using fluorescence-labeled nucleotides to give cDNAs that were introduced with Cy3-dUTP or Cy5-dUTP during the reverse transcription.
The labeled cDNAs were dissolved in TE buffer (10mM Tris-HCl/1 mM EDTA, pH8.0), and the solution was dropped on the DNA chip containing the whole genes of yeast (DNA Chip Research Inc. Japan) so that the cDNAs were hybridized on the DNA chip at 65° C. for over 12 hours. The fluoresces intensity of the DNA chip was read with a scanner, and the ratio relative to the fluorescence intensity resulting from the absence of chemical substance was estimated as the following, which is shown in Tables 1 to 9: […]

## manganese ethylenebis(dithiocarbamate) [(8)]
Yeast gene YJR048W
  The level of expressed mRNA in the presence of chemical substance/The level of expressed mRNA in the absence of chemical substance: 0.9
Yeast gene YJR121W, cells incubated two hours with the chemical substance
  The level of expressed mRNA in the presence of chemical substance/The level of expressed mRNA in the absence of chemical substance: 0.7
Yeast gene YJR155W
  The level of expressed mRNA in the presence of chemical substance/The level of expressed mRNA in the absence of chemical substance: 10.6
Yeast gene YKL016C, cells incubated two hours with the chemical substance
  The level of expressed mRNA in the presence of chemical substance/The level of expressed mRNA in the absence of chemical substance: 1.6
Yeast gene YKL060C, cells incubated two hours with the chemical substance
  The level of expressed mRNA in the presence of chemical substance/The level of expressed mRNA in the absence of chemical substance: 1.1
Yeast gene YKL141W, cells incubated two hours with the chemical substance
  The level of expressed mRNA in the presence of chemical substance/The level of expressed mRNA in the absence of chemical substance: 0.8
Yeast gene YKL148C, cells incubated two hours with the chemical substance
  The level of expressed mRNA in the presence of chemical substance/The level of expressed mRNA in the absence of chemical substance: 0.8
Yeast gene YKR009C, cells incubated two hours with the chemical substance
  The level of expressed mRNA in the presence of chemical substance/The level of expressed mRNA in the absence of chemical substance: 0.9
Yeast gene YKR058W, cells incubated two hours with the chemical substance, 25° C., YPD medium
  The level of expressed mRNA in the presence of chemical substance/The level of expressed mRNA in the absence of chemical substance: 1.5
Yeast gene YKR097W
  The level of expressed mRNA in the presence of chemical substance/The level of expressed mRNA in the absence of chemical substance: 2.5
Yeast gene YLL041C, cells incubated two hours with the chemical substance
  The level of expressed mRNA in the presence of chemical substance/The level of expressed mRNA in the absence of chemical substance: 0.8
Yeast gene YLR038C, cells incubated two hours with the chemical substance
  The level of expressed mRNA in the presence of chemical substance/The level of expressed mRNA in the absence of chemical substance: 1.4
Yeast gene YLR044C, cells incubated two hours with the chemical substance
  The level of expressed mRNA in the presence of chemical substance/The level of expressed mRNA in the absence of chemical substance: 0.7
Yeast gene YLR134W, cells incubated two hours with the chemical substance
  The level of expressed mRNA in the presence of chemical substance/The level of expressed mRNA in the absence of chemical substance: 0.8
Yeast gene YLR258W, cells incubated two hours with the chemical substance
  The level of expressed mRNA in the presence of chemical substance/The level of expressed mRNA in the absence of chemical substance: 0.9
Yeast gene YLR284C, cells incubated two hours with the chemical substance
  The level of expressed mRNA in the presence of chemical substance/The level of expressed mRNA in the absence of chemical substance: 1.2
Yeast gene YLR295C, cells incubated two hours with the chemical substance, 25° C., YPD medium
  The level of expressed mRNA in the presence of chemical substance/The level of expressed mRNA in the absence of chemical substance: 1.2
Yeast gene YLR304C, cells incubated two hours with the chemical substance
  The level of expressed mRNA in the presence of chemical substance/The level of expressed mRNA in the absence of chemical substance: 0.6
Yeast gene YLR345W
  The level of expressed mRNA in the presence of chemical substance/The level of expressed mRNA in the absence of chemical substance: 1.4
Yeast gene YLR354C, cells incubated two hours with the chemical substance
  The level of expressed mRNA in the presence of chemical substance/The level of expressed mRNA in the absence of chemical substance: 1.4
Yeast gene YLR377C, cells incubated two hours with the chemical substance
  The level of expressed mRNA in the presence of chemical substance/The level of expressed mRNA in the absence of chemical substance: 0.7
Yeast gene YLR395C, cells incubated two hours with the chemical substance
  The level of expressed mRNA in the presence of chemical substance/The level of expressed mRNA in the absence of chemical substance: 1.0
Yeast gene YML087C
  The level of expressed mRNA in the presence of chemical substance/The level of expressed mRNA in the absence of chemical substance: 1.3
Yeast gene YML120C, cells incubated two hours with the chemical substance
  The level of expressed mRNA in the presence of chemical substance/The level of expressed mRNA in the absence of chemical substance: 0.9
Yeast gene YML129C, cells incubated two hours with the chemical substance
  The level of expressed mRNA in the presence of chemical substance/The level of expressed mRNA in the absence of chemical substance: 1.2
Yeast gene YMR073C, cells incubated two hours with the chemical substance
  The level of expressed mRNA in the presence of chemical substance/The level of expressed mRNA in the absence of chemical substance: 1.1
Yeast gene YMR118C
  The level of expressed mRNA in the presence of chemical substance/The level of expressed mRNA in the absence of chemical substance: 1.0
Yeast gene YMR205C, cells incubated two hours with the chemical substance
  The level of expressed mRNA in the presence of chemical substance/The level of expressed mRNA in the absence of chemical substance: 0.7
Yeast gene YMR261C, cells incubated two hours with the chemical substance
  The level of expressed mRNA in the presence of chemical substance/The level of expressed mRNA in the absence of chemical substance: 0.7
Yeast gene YMR267W, cells incubated two hours with the chemical substance, 25° C., YPD medium
  The level of expressed mRNA in the presence of chemical substance/The level of expressed mRNA in the absence of chemical substance: 1.5
Yeast gene YMR323W, cells incubated two hours with the chemical substance
  The level of expressed mRNA in the presence of chemical substance/The level of expressed mRNA in the absence of chemical substance: 0.8
Yeast gene YNL071W
  The level of expressed mRNA in the presence of chemical substance/The level of expressed mRNA in the absence of chemical substance: 0.9
Yeast gene YNL202W, cells incubated two hours with the chemical substance
  The level of expressed mRNA in the presence of chemical substance/The level of expressed mRNA in the absence of chemical substance: 1.2
Yeast gene YNL241C
  The level of expressed mRNA in the presence of chemical substance/The level of expressed mRNA in the absence of chemical substance: 0.9
Yeast gene YNL331C
  The level of expressed mRNA in the presence of chemical substance/The level of expressed mRNA in the absence of chemical substance: 13.1
Yeast gene YOL086C, cells incubated two hours with the chemical substance
  The level of expressed mRNA in the presence of chemical substance/The level of expressed mRNA in the absence of chemical substance: 0.8
Yeast gene YOL165C
  The level of expressed mRNA in the presence of chemical substance/The level of expressed mRNA in the absence of chemical substance: 17.8
Yeast gene YOR142W, cells incubated two hours with the chemical substance
  The level of expressed mRNA in the presence of chemical substance/The level of expressed mRNA in the absence of chemical substance: 0.8
Yeast gene YOR178C, cells incubated two hours with the chemical substance
  The level of expressed mRNA in the presence of chemical substance/The level of expressed mRNA in the absence of chemical substance: 0.9
Yeast gene YOR388C, cells incubated two hours with the chemical substance
  The level of expressed mRNA in the presence of chemical substance/The level of expressed mRNA in the absence of chemical substance: 0.7
Yeast gene YPL031C, cells incubated two hours with the chemical substance
  The level of expressed mRNA in the presence of chemical substance/The level of expressed mRNA in the absence of chemical substance: 1.0
Yeast gene YPL061W, cells incubated two hours with the chemical substance
  The level of expressed mRNA in the presence of chemical substance/The level of expressed mRNA in the absence of chemical substance: 0.8
Yeast gene YPL088W
  The level of expressed mRNA in the presence of chemical substance/The level of expressed mRNA in the absence of chemical substance: 1.9
Yeast gene YPL171C
  The level of expressed mRNA in the presence of chemical substance/The level of expressed mRNA in the absence of chemical substance: 20.5
Yeast gene YPL240C
  The level of expressed mRNA in the presence of chemical substance/The level of expressed mRNA in the absence of chemical substance: 1.2
Yeast gene YPL262W, cells incubated two hours with the chemical substance
  The level of expressed mRNA in the presence of chemical substance/The level of expressed mRNA in the absence of chemical substance: 1.0
Yeast gene YPL275W, cells incubated two hours with the chemical substance
  The level of expressed mRNA in the presence of chemical substance/The level of expressed mRNA in the absence of chemical substance: 1.0
Yeast gene YPL276W, cells incubated two hours with the chemical substance
  The level of expressed mRNA in the presence of chemical substance/The level of expressed mRNA in the absence of chemical substance: 0.9
Yeast gene YPR048W, cells incubated two hours with the chemical substance
  The level of expressed mRNA in the presence of chemical substance/The level of expressed mRNA in the absence of chemical substance: 1.5
Yeast gene YPR184W, cells incubated two hours with the chemical substance
  The level of expressed mRNA in the presence of chemical substance/The level of expressed mRNA in the absence of chemical substance: 0.7
